Data set [1] deals with platelets and endothelium in LPS-stimulated lung-on-a-chip (PAR-1). Briefly: Platelet-endothelial dynamics (P-E) in LPS-stimulated lung-on-a-chip with PM2. The class given is cell-based, human. The source says: (§1) Specifically, the analysis includes a method to quantitate platelet function in flow chambers and microfluidic devices that has been primarily limited to analyzing platelet adhesion on bare collagen surfaces. To analyze platelet-endothelial dynamics that will act as a robust readout of physiologically-relevant clotting, an automated imaging program creates an image time-series, K(x, y, t), containing a 10-frame panorama in space. Images are acquired at a frame rate of 2 panoramic images per minute, for a total time of 15 minutes. A non-dimensional stochastic index is derived to quantitate platelet endothelial dynamics (“P-E”), which is the interpercentile range of a coefficient of variance of the image time-series: P-E=range(CV(K(x,y,t) (1) A feature of this analytical readout is that instead of an “ensemble averaging,” the method incorporates the cell-surface interactions at the pixel level and quantitates statistical “dispersion” of interactions.
(§2) After plasma treatment of the microfluidic devices, the two chambers are pre-treated with 10% (3-aminopropyl)-trimethoxysilane (APTMES, e.g., from Sigma) in 100% anhydrous alcohol (e.g., from Sigma) for 10-20 minutes. The chambers are flushed sequentially with 70% ethanol in water and 100% ethanol, and then dried at 60-80° C. for two hours. Then, a mixture of rat tail collagen I (100 μg ml^−1 in PBS, from BD Biosciences) and fibronectin (e.g., 30 μg/ml in PBSm, from BD Biosciences) is introduced in both chambers of the microfluidic device. The microfluidic device is incubated at 37° C. for at least 2 hours before flushing with PBS or EGM-2 cell culture media.
(§3) Some of the microfluidic devices are used with collagen coating alone (without cells). In other devices, HUVECs (e.g. from Lonza) are cultured in Endothelial Growth Medium-2 (EGM-2, from Lonza) and used between certain passages. The cells (5-10×10^6 cells/ml) are introduced into the collagen-coated channels and incubated for 20 minutes at 37° C. to promote cell attachment before a second similar HUVEC suspension is, then, introduced. The microfluidic devices are incubated upside down for an additional 20 minutes to seed the cells on the ceiling and walls of the lower chamber.
The lower chamber is then flushed with EGM-2 and, then, a suspension of primary alveolar epithelial cells (e.g., from ScienCell Research Labs, Carlsbad, Calif.; 5-6×10^6 cells ml^−1) is introduced into the top chamber of the device. After a few hours, the top and bottom chambers are flushed with their respective media, and the microfluidic devices are incubated at 37° C. under 5% CO2 for 3 days (with media being replaced each day once). […]

For the next data set, the system named is C57BL/6J mice. Briefly: Mouse laser injury model of thrombosis and lung histology after LPS. The class given is in vivo. How it is done:
In the above described techniques, C57BL/6J mice (about 8-12 weeks old) are used. For example, the mice are purchased from the Jackson Laboratory (Bar Harbor, Me.). Animal care and experimental procedures are performed in accordance with and under approval of the Beth Israel Deaconess Medical Center (“BIDMC”) Institutional Animal Care and Use Committee.
LPS is isolated from Escherichia coli serotype 0111:B4 (e.g., from Sigma-Aldrich, St Louis, Mo.). The anti-platelet antibody CD42b conjugated to Dylight649 is purchased, for example, from Emfret Analytics (Eibelstadt, Germany).
A laser-induced injury model of thrombosis is optionally used to monitor thrombosis formation in cremaster arterioles and venules in response to intraperitoneal injection of LPS (e.g., 10 mg kg^−1) or vehicle (e.g., physiological saline solution). Intravital microscopy of the cremaster microcirculation is performed, with injury to a cremaster arteriolar (e.g., 30-50 μm diameter) vessel wall being induced with a Micropoint Laser System (e.g., from Photonics Instruments, Chicago, Ill.). The Micropoint Laser System is focused through a microscope objective, parfocal with the focal plane and tuned to 440 nm. Data is captured digitally in a single fluorescence channel at 647/670 nm. Data acquisition is initiated both prior to and following a single laser pulse for each injury. Images are captured using a CCD camera (e.g., from Hamamatsu) at frame rates of 1/0.2 s^−1 and 1/0.5 s^−1, for a total of 240 seconds. The microscope system is controlled and images are analyzed using Slidebook (e.g., from Intelligent Imaging Innovations, Denver, Colo.). Anti-platelet antibodies re infused into the mice prior to vessel wall injury.
Histology Lungs are harvested in 4% paraformaldehyde. Following overnight incubation, lungs re transferred to 70% ethanol. Paraffin-embedded lungs are sectioned and stained with Hematoxylin and eosin […] or Masson's Trichome stain (MTS). This work is done by the histology and microscopy core at BIDMC.

Data set [2] deals with primary alveolar epithelial cells (AE) and endothelial cells with whole blood. Briefly: Lung-on-a-chip stimulated with TNF-α or LPS: vascular ICAM-1, P-E, clots, gap junctions. The class given is cell-based, human.
Excerpt: as §1, §2, §3
The lower chamber is then flushed with EGM-2 and, then, a suspension of primary alveolar epithelial cells (e.g., from ScienCell Research Labs, Carlsbad, Calif.; 5-6×10^6 cells ml^−1) is introduced into the top chamber of the device. After a few hours, the top and bottom chambers are flushed with their respective media, and the microfluidic devices are incubated at 37° C. under 5% CO2 for 3 days (with media being replaced each day once). On day 4, the bottom vascular chamber is set on perfusion of EGM-2 media (e.g., 30 μL hr^−1; 0.5% fetal bovine serum) to provide shear to the HUVEC vessel chamber and a continuous supply of fresh media.
On day 6, the epithelial cell media in the top chamber is aspirated to create the air-liquid interface of the alveoli. Hereon, the cell culture continues for another 6-8 days, after which, in some cases, the top chamber is supplemented with 0, 5, or 100 ng ml^−1 TNF-α in PBS (e.g., from Sigma) overnight or LPS (e.g., 100 ng ml^−1 of E. Coli, from Sigma,) for 2 hours to cause cell activation. The LPS is sonicated in ultrasonic bath for about 20-30 minutes before introducing into the microfluidic device. After stimulation, the top chamber is clamped, the bottom chamber is rinsed with culture media, a reservoir cut from a 3 ml slip-tip syringe (e.g., from BD) is inserted on one end of the lower chamber, and a 1/16-inch male luer connector (e.g., from Qosina Corp) is inserted on the other end of the lower chamber.
When analyzing the formation of fibrin, blood samples re added with 15 μg ml^−1 of fluorescently labeled fibrinogen (e.g., Alexa 488 from Invitrogen). […]

Entries after “also recorded” stand apart in the source; their conditions may differ.

`CCCC(=O)Nc1cccc(NC(=O)c2ccccc2Br)c1` [PM2, parmodulin 2]: the “platelet-endothelial dynamics (P-E)” value in data set [1] (PM2 30 μM added to blood alone, AE side stimulated with LPS) is listed as “reduction of P-E”. Further, the “clotting and platelet-endothelial dynamics (P-E)” value in data set [1] (PM2 30 μM added to endothelial cell culture medium, AE side stimulated with LPS 100 ng/ml) is “no significant clotting occurs”. The “P-E and thrombotic activity” value in data set [1] (PM2 added to both endothelium and platelets, AE side stimulated with LPS) was “completely inhibits the P-E and thrombotic activity”. Further, the “overall effect of PM2 in LPS-stimulated lung-on-a-chip” value in data set [1] (model of acute lung dysfunction, whole blood perfusion) is “endothelial cytoprotective effect; also recorded: cytoprotective and anti-thrombotic effect”.
With lipopolysaccharide [LPS], the lung histology entry in the data set on C57BL/6J mice (LPS injection) is “lung injury and pulmonary thrombosis; also recorded: causes clotting in the lung”. Also, the “increase in P-E in cremaster artery and vein” value in the data set on C57BL/6J mice (laser injury plus LPS) is “further exacerbated”. For the same compound, the “platelet-endothelial interactions / thrombosis in cremaster artery or vein” value with C57BL/6J mice (systemic LPS alone (10 mg kg^-1 intraperitoneal)) is given as “does not induce any platelet-endothelial interactions; also recorded: does not cause thrombosis in a cremaster artery or vein”. The “platelet-endothelial dynamics (P-E)” value in data set [2] (LPS in the absence of AE) is “near absent”; in data set [2] (LPS stimulation over the AE) it was “significantly increases”. For the same compound, the gap junctions result in data set [2] (LPS in the presence of AE) is listed as “significantly increase”; in data set [2] (blood vessel alone stimulated with LPS), “not affected”. Moreover, in data set [2] (LPS stimulation of endothelium alone), the thrombus formation entry is “does not cause thrombus formation”. Also, the “endothelial inflammation (vascular ICAM-1)” value in data set [2] (LPS stimulation over the AE) is reported as “inflamed”. Besides, in data set [2] (LPS-stimulated device containing AE), the “thrombus formation (platelet aggregates, fibrin) in the lumen” value was “large platelet aggregates are formed along with significant fibrin in the lumen; also recorded: vascular dysfunction and rapid clotting”. Moreover, in data set [2] (blood vessel alone stimulated with LPS for 2 hours (no AE)), the “vascular ICAM-1” value is reported as “no significant increase in ICAM-1”.

The values are drawn from patent US10732172B1, “Methods, systems, and compositions for determining blood clot formation, and uses thereof” (President and Fellows of Harvard College, priority 2015, dated 2020).
